# Patent publication US20120071475A1, “UREA DERIVATIVES HAVING PI3K-INHIBITING ACTIVITY” (SHIONOGI & CO., LTD., priority 2009, published 2012)
# Read-outs that look alike come from different tables or passages of the source.
# Key:
# PI3Kα = PI3Kα (Homo sapiens, UniProt P42336); experiment: PI3Kα inhibitory activity (Ki value); type: biochemical
# Protocol: According to Example 2 above, after 80 μg/mL PI-3 kinase γ of the enzyme solution (80 μg/mL PI-3 kinase γ, 10 mmol/L MgCl2, 5 mmol/L DTT) was changed to 0.8 μg/mL PI-3 kinase α, an inhibition ratio was calculated by a method similar to the method for measuring PI3Kγ inhibitory activity, and then defined as the PI3Kα inhibitory activity.
# The α inhibitory activity (Ki value) of a compound was evaluated according to the following procedure.
# According to Example 4 above, a Km value for PI3Kα was determined to calculate a Ki value.
# PI3Kγ [1] = target: T1, PI3Kγ (Homo sapiens, UniProt P48736); experiment: PI3Kγ inhibitory activity (PI3-kinase HTRF assay, inhibition ratio); type: biochemical; conditions: 0.5 h, compound at 10 μmol/L; read-out: PI3Kg Inhibition Ratio % (10 μM)
# Method in brief: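 Compound at 10 μmol/L preincubated 10 min with PI3Kγ and PIP2 substrate, then reacted with ATP for 30 minutes at room temperature; the compound, substrate and ATP figures as printed (40 μmol/L each) are solution concentrations. HTRF 665/620 nm ratio read after 18 hours. Inhibition ratio calculated against no-compound (100%) and no-enzyme (0%) controls.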
# PI3Kγ [2] = target: T1, PI3Kγ; experiment: PI3Kγ inhibitory activity (Ki value); type: biochemical
# Protocol: The PI3Kγ inhibitory activity (Ki value) of a compound was evaluated according to the following procedure:
# 5 μL of a compound solution containing 10% DMSO and […] of a compound was changed to 5 μL of a compound solution containing 10% DMSO and either 200, 64, 20, 6.4, 2, 0.64, or 0.20 μmol/L of the compound (optionally, this is diluted to a lower concentration). Using a method similar to the method for measuring PI3Kγ inhibitory activity, inhibition ratios of PI3Kγ were measured in the presence of the compound at 50, 16, 5, 1.6, 0.5, 0.16, and 0.05 μmol/L (optionally, a lower concentration). Then an IC50 value was calculated by a logistic approximation method or the linear regression method using two concentrations that cross 50% inhibition. Separately, the ATP concentration in the reaction solution (40 μmol/L ATP, 10 mmol/L MgCl2, 5 mmol/L DTT) at the time of the start of a reaction in the absence of the compound was changed to 80, 40, 20, 10, 5, 2.5, 1.25, or 0.625 μmol/L. Then, HTRF ratios were measured by a similar method. The value obtained by subtracting the HTRF ratio at each ATP concentration from the HTRF ratio in the absence of PI-3 kinase y was defined as the value obtained by multiplying reaction rate (v) at each ATP concentration with a constant. The Michaelis-Menten constant Km was then calculated by the Lineweaver-Burk plot method. The Ki value of a compound was calculated by the following formula wherein “μM” denotes “μmol/L.”
# Ki value ═IC50 value/(1+test ATP concentration (μM)/Km (μM))
# PI3Kβ = PI3Kβ (Homo sapiens, UniProt P42338); experiment: PI3Kβ inhibitory activity (Ki value); type: biochemical
# Protocol: According to Example 2 above, after 80 μg/mL PI-3 kinase γ of the enzyme solution (80 μg/mL PI-3 kinase γ, 10 mmol/L MgCl2, 5 mmol/L DTT) was changed to 60 μg/mL PI-3 kinase β, a method similar to the method for measuring PI3Kγ inhibitory activity was used to calculate an inhibition ratio, which was defined as the PI3Kβ inhibitory activity.
# According to Example 4 above, a Km value for PI3Kβ was determined to calculate a Ki value.
# CYP3A4 = target: T2, CYP3A4 (Homo sapiens, UniProt P08684); experiment: CYP3A4 fluorescence MBI test; type: in vitro ADME; conditions: difference in IC50 with 0 or 30 minutes pre-reaction; CYP3A4 expressed in E. coli, substrate 7-BFC
# T2 construct: host or cells: E. coli
# Method in brief: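 E. coli-expressed CYP3A4 debenzylating 5.6 μmol/L 7-BFC to fluorescent 7-HFC (Ex 420/Em 535 nm) in K-Pi pH 7.4 at 25° C, 15 min reaction. NADPH pre-incubation of 0 or 30 min, with 10-fold dilution before reaction. IC50 from 0.625–20 μmol/L (6 points); (+) for an IC50 shift ≥5 μmol/L, (−) for ≤3 μmol/L.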
# PI3Kδ = PI3Kδ (Homo sapiens, UniProt O00329); experiment: PI3Kδ inhibitory activity (Ki value); type: biochemical
# Protocol: According to Example 2 above, after 80 μg/mL PI-3 kinase γ of the enzyme solution (80 μg/mL PI-3 kinase γ, 10 mmol/L MgCl2, 5 mmol/L DTT) was changed to 158 μg/mL PI-3 kinase δ, a method similar to the method for measuring PI3Kγ inhibitory activity was used to calculate an inhibition ratio, which was defined as the PI3Kδ inhibitory activity.
# According to Example 4 above, a Km value for PI3Kδ was determined to calculate a Ki value.
# [3] = Metabolic stability test (pooled human liver microsome); type: in vitro ADME; conditions: percentage of test compound remained after 30 minutes, pooled human liver microsome 0.5 mg protein/mL, 1 mmol/L NADPH, 37° C., compound 0.5 μM
# Method in brief: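 Pooled human liver microsomes (0.5 mg protein/mL) incubated with compound and 1 mmol/L NADPH at 37° C. in pH 7.4 Tris buffer for 0 or 30 min. Parent quantified by LC/MS/MS after methanol/acetonitrile quench; value is % remaining at 30 min versus 0 min.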
# hERG channel (IKr) = target: T3, hERG channel (IKr) (Homo sapiens, UniProt Q12809); experiment: hERG test (whole-cell patch-clamp, IKr in HEK293 cells); type: cell-based; conditions: human, HEK293 cells expressing hERG channel, pH 7.4, inhibition of maximum tail current (IKr), compound 1 μM
# T3 construct: expressed in transfected cells; host or cells: HEK293
# Method in brief: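 hERG-expressing HEK293 cells, automated whole-cell patch clamp: hold −80 mV, +50 mV for 2 s, then −50 mV for 2 s to record IKr tail current. Compound in extracellular solution (pH 7.4) for 10 min at room temperature; inhibition of maximum tail current calculated versus pre-application and compared with 0.1% DMSO vehicle.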
# [4] = Solubility test (artificial intestinal juice pH 6.8, 1% DMSO); type: physicochemical; conditions: artificial intestinal juice pH 6.8 with 1% DMSO, fassgf or other biorelevant, kinetic from dmso stock, 25° C.
# Protocol: The solubility of a compound was determined under a condition in which 1% DMSO was added. 10 mmol/L compound solution was prepared using DMSO, and then 6 μL of the compound solution was added to 594 μL of artificial intestinal juice in pH 6.8 (to 250 mL of 0.2 mol/L potassium dihydrogen phosphate reagent solution was added 118 mL of 0.2 mol/L NaOH reagent solution and water to provide a final volume of 1000 mL). After standing at 25° C. for 16 hours, the mixed solution was filtered with suction. The filtrate was diluted twice with methanol/water (1/1), and then a concentration in the filtration was measured with HPLC or LC/MS/MS by the absolute calibration method.
# AKT phosphorylation = AKT phosphorylation inhibitory activity in MCP-1 stimulated THP-1 cells (sandwich ELISA); type: cell-based, Human; conditions: Homo sapiens, compound at 1 μmol/L, MCP-1 stimulation, read-out: AKT phosphorylation inhibition ratio
# Method in brief: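 THP-1 cells (6.7×10^6/mL in HBSS) were preincubated with compound at 1 μmol/L for 5 min at 37 °C, then stimulated for 60 s with HBSS containing 1.2 μg/mL MCP-1 and lysed. Phospho-Akt Ser473/AKT1 sandwich ELISA was read at A450. % inhibition: no compound = 100% activity, no MCP-1 = 0%.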
# [5] = class symbols, read-out: PI3K α Ki
# [6] = class symbols, read-out: PI3K γ Ki
# [7] = class symbols, read-out: PI3K β Ki
# [8] = class symbols, read-out: PI3K δ Ki
# PI3Kδ, sequence (O00329 whole entry, species assumed): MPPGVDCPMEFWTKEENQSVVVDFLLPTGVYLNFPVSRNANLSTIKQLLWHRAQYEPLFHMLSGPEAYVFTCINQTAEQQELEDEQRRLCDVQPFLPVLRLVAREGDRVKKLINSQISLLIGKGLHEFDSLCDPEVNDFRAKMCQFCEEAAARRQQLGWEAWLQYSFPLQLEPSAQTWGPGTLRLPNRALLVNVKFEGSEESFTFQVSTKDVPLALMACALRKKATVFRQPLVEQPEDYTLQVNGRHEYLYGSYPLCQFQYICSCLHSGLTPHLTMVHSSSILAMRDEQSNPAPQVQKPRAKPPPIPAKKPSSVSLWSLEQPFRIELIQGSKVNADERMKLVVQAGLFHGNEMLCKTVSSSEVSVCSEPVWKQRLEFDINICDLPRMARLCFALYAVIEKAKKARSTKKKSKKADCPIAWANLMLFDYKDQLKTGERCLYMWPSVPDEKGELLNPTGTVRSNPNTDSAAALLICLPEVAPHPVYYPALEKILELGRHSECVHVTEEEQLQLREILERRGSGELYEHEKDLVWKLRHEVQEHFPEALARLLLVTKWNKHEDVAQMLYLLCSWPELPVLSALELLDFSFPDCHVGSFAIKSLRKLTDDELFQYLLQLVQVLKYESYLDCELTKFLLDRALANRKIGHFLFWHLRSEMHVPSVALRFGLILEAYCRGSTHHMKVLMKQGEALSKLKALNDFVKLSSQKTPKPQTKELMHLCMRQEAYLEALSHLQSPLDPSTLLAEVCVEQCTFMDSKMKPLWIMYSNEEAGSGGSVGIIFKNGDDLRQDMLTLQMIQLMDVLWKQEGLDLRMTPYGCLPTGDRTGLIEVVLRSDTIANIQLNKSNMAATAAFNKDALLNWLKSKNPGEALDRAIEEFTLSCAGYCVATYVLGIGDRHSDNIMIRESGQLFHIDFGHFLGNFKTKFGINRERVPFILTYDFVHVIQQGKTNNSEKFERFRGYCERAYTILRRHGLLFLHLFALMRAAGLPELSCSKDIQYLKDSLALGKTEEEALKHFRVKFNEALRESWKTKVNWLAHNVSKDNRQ
# PI3Kδ, sequence (P27986 whole entry partner, species assumed): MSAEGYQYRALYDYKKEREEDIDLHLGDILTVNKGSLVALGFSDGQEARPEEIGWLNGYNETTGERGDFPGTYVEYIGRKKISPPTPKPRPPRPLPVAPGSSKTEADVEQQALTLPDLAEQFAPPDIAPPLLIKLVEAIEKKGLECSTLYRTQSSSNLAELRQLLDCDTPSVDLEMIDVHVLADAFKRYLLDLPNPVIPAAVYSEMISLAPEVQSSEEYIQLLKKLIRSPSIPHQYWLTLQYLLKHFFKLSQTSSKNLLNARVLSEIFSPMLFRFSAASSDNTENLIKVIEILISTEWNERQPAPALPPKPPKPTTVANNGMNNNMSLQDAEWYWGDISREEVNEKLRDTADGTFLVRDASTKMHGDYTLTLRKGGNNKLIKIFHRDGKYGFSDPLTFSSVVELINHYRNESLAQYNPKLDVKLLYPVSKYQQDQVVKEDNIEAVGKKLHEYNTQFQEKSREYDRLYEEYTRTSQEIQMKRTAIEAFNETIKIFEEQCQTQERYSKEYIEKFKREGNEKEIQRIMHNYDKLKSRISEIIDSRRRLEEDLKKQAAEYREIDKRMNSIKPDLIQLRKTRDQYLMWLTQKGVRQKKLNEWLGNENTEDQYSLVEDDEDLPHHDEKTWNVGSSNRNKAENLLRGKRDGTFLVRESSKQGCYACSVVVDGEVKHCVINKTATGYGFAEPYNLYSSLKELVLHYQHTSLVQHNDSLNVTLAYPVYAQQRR
# PI3Kβ, sequence (P42338 whole entry, species assumed): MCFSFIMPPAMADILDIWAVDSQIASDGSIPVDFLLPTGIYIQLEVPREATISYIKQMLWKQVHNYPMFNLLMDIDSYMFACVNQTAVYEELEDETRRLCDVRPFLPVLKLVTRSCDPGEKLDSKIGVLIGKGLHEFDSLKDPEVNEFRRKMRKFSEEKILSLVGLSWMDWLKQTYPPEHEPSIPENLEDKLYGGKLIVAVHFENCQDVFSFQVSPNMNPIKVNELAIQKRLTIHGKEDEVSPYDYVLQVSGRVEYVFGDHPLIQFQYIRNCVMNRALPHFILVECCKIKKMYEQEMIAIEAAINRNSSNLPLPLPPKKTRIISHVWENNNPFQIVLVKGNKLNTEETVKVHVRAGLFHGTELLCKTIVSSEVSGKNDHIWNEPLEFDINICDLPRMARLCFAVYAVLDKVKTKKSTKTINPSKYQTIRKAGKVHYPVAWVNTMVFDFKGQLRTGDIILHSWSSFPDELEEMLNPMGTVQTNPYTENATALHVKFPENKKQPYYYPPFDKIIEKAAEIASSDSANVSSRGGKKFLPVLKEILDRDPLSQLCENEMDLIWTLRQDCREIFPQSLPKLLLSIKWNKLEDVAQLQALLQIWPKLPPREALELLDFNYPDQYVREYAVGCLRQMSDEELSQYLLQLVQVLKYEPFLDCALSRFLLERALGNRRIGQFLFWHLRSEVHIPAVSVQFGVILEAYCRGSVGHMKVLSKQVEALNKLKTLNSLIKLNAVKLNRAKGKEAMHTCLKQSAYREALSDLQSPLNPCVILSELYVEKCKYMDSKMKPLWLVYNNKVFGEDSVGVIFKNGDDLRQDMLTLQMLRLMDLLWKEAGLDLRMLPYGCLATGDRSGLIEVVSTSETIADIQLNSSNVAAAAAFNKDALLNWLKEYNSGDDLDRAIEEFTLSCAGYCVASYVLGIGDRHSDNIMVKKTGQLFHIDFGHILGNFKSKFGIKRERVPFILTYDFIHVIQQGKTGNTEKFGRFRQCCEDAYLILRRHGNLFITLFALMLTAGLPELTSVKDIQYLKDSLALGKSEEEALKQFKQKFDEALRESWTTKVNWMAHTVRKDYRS
# PI3Kβ, sequence (P27986 whole entry partner, species assumed): as the sequence (P27986 whole entry partner, species assumed) above
# PI3Kα, sequence (P42336 whole entry, species assumed): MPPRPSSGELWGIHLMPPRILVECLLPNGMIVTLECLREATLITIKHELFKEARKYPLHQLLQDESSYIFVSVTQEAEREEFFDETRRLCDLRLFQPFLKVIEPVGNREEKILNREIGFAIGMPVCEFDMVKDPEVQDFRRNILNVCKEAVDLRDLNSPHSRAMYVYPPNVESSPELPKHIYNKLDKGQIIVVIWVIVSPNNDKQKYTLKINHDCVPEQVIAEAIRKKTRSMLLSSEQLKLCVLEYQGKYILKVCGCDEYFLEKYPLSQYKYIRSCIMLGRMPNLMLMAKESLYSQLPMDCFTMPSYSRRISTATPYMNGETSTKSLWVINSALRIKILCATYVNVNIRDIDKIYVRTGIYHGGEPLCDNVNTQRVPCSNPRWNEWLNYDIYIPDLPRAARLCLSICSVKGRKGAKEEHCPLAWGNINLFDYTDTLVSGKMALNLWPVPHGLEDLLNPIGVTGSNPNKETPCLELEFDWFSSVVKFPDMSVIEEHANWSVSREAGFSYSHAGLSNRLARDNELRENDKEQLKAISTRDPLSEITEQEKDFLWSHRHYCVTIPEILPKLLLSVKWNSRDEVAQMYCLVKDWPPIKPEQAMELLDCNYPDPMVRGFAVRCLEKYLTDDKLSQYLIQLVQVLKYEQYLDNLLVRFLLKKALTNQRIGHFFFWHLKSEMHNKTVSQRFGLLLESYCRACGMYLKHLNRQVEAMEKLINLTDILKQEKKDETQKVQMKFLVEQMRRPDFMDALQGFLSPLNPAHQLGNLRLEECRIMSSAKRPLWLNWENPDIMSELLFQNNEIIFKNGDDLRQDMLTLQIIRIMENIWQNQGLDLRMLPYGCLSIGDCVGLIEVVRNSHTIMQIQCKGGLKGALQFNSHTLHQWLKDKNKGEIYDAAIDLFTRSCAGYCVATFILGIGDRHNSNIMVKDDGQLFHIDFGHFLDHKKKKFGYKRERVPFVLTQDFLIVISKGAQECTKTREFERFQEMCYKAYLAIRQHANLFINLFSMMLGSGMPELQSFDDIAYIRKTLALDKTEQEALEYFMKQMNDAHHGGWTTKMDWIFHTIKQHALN
# PI3Kα, sequence (P27986 whole entry partner, species assumed): as the sequence (P27986 whole entry partner, species assumed) above
# T1 sequence (P48736 whole entry, species assumed): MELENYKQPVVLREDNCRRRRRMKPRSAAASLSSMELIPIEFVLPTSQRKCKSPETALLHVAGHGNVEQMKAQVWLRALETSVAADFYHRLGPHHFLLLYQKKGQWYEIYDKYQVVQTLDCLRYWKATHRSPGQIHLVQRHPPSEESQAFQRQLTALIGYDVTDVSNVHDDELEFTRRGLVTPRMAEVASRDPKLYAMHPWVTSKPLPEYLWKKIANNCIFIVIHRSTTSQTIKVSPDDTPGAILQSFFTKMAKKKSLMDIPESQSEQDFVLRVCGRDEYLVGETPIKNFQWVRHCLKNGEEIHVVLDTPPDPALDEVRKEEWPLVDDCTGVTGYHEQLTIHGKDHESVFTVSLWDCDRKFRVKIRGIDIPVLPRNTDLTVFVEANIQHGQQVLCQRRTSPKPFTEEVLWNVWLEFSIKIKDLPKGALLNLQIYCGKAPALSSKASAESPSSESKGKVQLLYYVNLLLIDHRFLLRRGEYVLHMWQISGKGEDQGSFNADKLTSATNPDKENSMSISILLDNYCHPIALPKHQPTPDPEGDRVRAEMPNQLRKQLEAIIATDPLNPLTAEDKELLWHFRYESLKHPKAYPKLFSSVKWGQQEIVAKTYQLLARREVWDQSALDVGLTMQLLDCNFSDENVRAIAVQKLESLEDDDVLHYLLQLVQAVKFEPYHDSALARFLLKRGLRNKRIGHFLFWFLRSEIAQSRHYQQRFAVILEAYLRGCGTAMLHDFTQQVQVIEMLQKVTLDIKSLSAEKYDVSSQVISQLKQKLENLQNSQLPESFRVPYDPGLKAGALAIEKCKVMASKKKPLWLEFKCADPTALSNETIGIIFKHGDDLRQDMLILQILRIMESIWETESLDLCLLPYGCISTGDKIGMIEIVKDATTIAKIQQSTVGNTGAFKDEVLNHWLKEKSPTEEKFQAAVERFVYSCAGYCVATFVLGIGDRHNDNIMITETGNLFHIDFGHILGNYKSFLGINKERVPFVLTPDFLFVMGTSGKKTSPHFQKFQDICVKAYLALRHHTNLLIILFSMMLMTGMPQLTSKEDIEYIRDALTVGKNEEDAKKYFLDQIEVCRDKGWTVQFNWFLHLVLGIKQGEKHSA
SMILES,Ki (PI3Kα; [5]) [µM],inhibition at 10 µM (PI3Kγ [1]) [%],Ki (PI3Kγ [2]; [6]) [µM],Ki (PI3Kγ [2]; read-out: PI3Kγ Ki value) [µM],Ki (PI3Kβ; [7]) [µM],MBI (CYP3A4),Ki (PI3Kδ; [8]) [µM],Ki (PI3Kα; read-out: PI3Kα Ki value) [µM],hLMS_ox(at 0.5 μM) % [3] [%],"inhibition at 10 min, 1 µM (hERG channel (IKr)) [%]",Ki (PI3Kβ; read-out: PI3Kβ Ki value) [µM],Ki (PI3Kδ; read-out: PI3Kδ Ki value) [µM],solubility at 16 h [4] [µM],inhibition at 1 µM (AKT phosphorylation) [%]
COc1cncc(-c2ccc3nc(NC(=O)Nc4ccccc4OCCC(C)C)sc3n2)c1 [Compound I-225],> 3,≥ 95,≤ 0.03,0.015,≤ 0.3,"(−) (When 3 μmol/L or less, the compound is shown as (−))",> 3,,,,,,,
COc1cc(C2(F)CCc3nc(NC(=O)Nc4ccccc4C(=O)NC(C)C)sc3C2)nc(OC)n1 (centres unmarked) [Compound I-83],> 3,≥ 95,≤ 0.3,0.11,> 3,,> 3,> 13,89.1,3.3,> 12,> 12,,
COc1cccc(-c2ccc3nc(NC(=O)Nc4ccccc4C(=O)NC(C)C)cn3n2)c1 [Compound I-123],> 3,,≤ 0.03,0.025,≤ 3,,≤ 0.3,,,,,,,
COc1cc(N2CCc3nc(NC(=O)Nc4ccccc4OCCN(C)C)sc3C2)nc(OC)n1 [Compound I-76],,,,,,,,,,,,,26.3,
COc1cc(N2CCc3nc(NC(=O)Nc4ccccc4C4=NC(C)(C)CO4)sc3C2)nc(OC)n1 [Compound I-14],> 3,94,≤ 0.3,0.054,> 3,"(−) (When 3 μmol/L or less, the compound is shown as (−))",> 3,,,,,,,
CC(C)CCOc1ccccc1NC(=O)Nc1cn2nc(-c3cccc(S(C)(=O)=O)c3)ccc2n1 [Compound I-126],> 3,,≤ 0.3,0.061,≤ 3,,≤ 3,,,,,,,
CC(C)CCOc1ccccc1NC(=O)Nc1cc2n(n1)CCN2c1ccc2c(c1)CCN(C)C2=O [Compound I-112],> 3,,≤ 3,1.1,> 3,,≤ 3,7.5,,,> 11,2.1,,
COc1cncc(-c2ccc3nc(NC(=O)Nc4ccccc4OCCC(C)C)nn3c2)c1 [Compound I-216],> 3,≥ 95,≤ 0.3,0.23,≤ 3,,> 3,,,,,,,
COc1cc(N2CCc3nc(NC(=O)NC4=C(C(=O)NC(C)(C)C)CCC4)sc3C2)nc(OC)n1 [Compound I-28],> 3,≥ 95,≤ 0.3,0.047,≤ 3,,≤ 3,,,,,,,
CC(C)NC(=O)c1ccccc1NC(=O)Nc1cn2nc(-c3cccc(S(C)(=O)=O)c3)ccc2n1 [Compound I-125],≤ 3,,≤ 0.03,0.013,≤ 0.3,,≤ 0.3,,103,1.3,,,,
COc1cc(-c2ccc3nc(NC(=O)Nc4ccccc4OCCC(C)C)sc3c2)nc(OC)n1 [Compound I-213],> 3,,≤ 0.3,0.058,> 3,,> 3,,,,,,,
CC(C)CCc1ccccc1NC(=O)Nc1cc2n(n1)CCN2c1ccc2c(c1)CCN(C)C2=O [Compound I-113],> 3,,≤ 3,2.3,> 3,,≤ 3,,,,,,,
Cc1cc(N2Cc3sc(NC(=O)Nc4ccccc4C(=O)NC(C)C)nc3C(C)C2)nc(Cl)n1 (centres unmarked) [Compound I-229],> 3,≥ 95,≤ 0.03,0.0094,> 3,,> 3,,,,,,,
COc1nc(Cl)cc(N2CCc3nc(NC(=O)Nc4ccccc4C(=O)NC4CCCC4O)sc3C2)n1 (centres unmarked) [Compound I-174],> 3,≥ 95,≤ 0.03,0.0036,≤ 3,,≤ 3,,,,,,,81
